# Source: ChEMBL document CHEMBL4616590, “Therapeutic significance of β-glucuronidase activity and its inhibitors: A review” (Eur J Med Chem, 2020)
# Key:
# [1] = Half life in BALB/CJ mouse at 10 ug administered as twice daily; assay type: ADME; details: in vivo
# Beta-glucuronidase [2] = target: T1, Beta-glucuronidase (Mus musculus, UniProt P12265); assay: In-vivo inhibition of beta-glucuronidase in BALB/CJ mouse at 10 ug administered as twice daily; assay type: functional
# T1 sequence (P12265 whole entry): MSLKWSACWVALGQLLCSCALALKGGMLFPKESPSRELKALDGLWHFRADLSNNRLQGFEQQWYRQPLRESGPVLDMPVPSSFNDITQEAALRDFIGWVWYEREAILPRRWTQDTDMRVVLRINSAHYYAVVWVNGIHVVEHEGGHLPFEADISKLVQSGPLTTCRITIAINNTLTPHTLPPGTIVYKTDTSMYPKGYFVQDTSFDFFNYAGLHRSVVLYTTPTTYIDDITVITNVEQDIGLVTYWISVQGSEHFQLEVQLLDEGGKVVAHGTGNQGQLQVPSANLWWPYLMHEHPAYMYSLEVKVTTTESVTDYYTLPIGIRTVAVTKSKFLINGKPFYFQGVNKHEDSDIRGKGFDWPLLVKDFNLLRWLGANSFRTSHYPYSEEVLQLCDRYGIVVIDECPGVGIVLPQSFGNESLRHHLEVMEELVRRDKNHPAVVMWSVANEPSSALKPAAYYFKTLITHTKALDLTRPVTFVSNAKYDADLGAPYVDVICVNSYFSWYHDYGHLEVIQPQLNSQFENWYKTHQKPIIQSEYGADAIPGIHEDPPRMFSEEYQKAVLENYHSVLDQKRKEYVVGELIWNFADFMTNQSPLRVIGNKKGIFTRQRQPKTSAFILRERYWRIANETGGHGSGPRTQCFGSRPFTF
# [3] = target: T2, Beta-glucuronidase (Homo sapiens) (UniProt P08236); details: 10 mg/ml
# T2 sequence (whole entry): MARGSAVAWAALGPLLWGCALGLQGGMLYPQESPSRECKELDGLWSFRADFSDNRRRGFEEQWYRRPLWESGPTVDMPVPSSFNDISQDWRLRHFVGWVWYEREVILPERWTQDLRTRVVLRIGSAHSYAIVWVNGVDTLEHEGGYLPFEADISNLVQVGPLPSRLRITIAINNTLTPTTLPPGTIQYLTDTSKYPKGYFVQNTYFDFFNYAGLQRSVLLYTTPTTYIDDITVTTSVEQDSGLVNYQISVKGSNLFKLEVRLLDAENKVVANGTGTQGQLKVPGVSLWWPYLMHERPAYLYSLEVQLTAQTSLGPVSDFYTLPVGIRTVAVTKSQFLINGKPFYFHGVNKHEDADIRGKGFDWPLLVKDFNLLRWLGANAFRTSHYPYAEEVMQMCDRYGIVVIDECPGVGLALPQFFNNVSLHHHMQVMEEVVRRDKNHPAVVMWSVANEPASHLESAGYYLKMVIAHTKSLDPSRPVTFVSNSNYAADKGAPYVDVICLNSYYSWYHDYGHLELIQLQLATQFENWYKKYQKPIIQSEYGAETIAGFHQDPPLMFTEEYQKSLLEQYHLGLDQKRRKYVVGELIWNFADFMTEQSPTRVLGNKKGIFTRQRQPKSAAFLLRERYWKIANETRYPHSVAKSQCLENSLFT
# [4] = target: T2, Beta-glucuronidase (Homo sapiens); assay: Inhibition of beta-glucuronidase (unknown origin) at 1 mM relative to control
# Beta-glucuronidase [5] = target: T3, Beta-glucuronidase (Escherichia coli (strain K12), UniProt P05804); assay: Inhibition of Escherichia coli beta-glucuronidase using p-nitrophenyl-beta-D-glucuronide as substrate
# [6] = Selectivity index, ratio of IC50 for beta-glucuronidase (unknown origin) to IC50 for Escherichia coli beta-glucuronidase
# Beta-glucuronidase [7] = target: T4, Beta-glucuronidase (Homo sapiens, UniProt P08236); assay: Inhibition of beta-glucuronidase (unknown origin) using p-nitrophenyl-beta-d-glucuronide as substrate after 30 mins
# T4 sequence (P08236 whole entry): T2 sequence (whole entry)
# [8] = target: T5, Beta-glucuronidase (Mus musculus) (UniProt P12265); assay: In-vivo inhibition of ICR mouse beta-glucuronidase at 20 mg/kg, sc after 10 weeks relative to DMH alone; assay type: functional, organism-based
# T5 sequence (whole entry): T1 sequence (P12265 whole entry)
# [9] = target: T5, Beta-glucuronidase (Mus musculus); assay: In-vivo inhibition of ICR mouse beta-glucuronidase at 60 mg/kg, sc after 10 weeks relative to DMH alone; assay type: functional, organism-based
# [10] = Inhibition of Escherichia coli K-12 beta-glucuronidase using PNPG as substrate preincubated for 5 mins followed by substrate addition measured after 30 mins
# [11] = Inhibition of bovine liver beta-glucuronidase using p-nitrophenyl-beta-d-glucuronide as substrate after 30 mins by spectrophotometric analysis; design: species or system Bos taurus
# [12] = Inhibition of bovine liver beta-glucuronidase using p-nitrophenyl-beta-D-glucuronide as substrate after 30 mins; design: species or system Bos taurus
# [13] = target: Beta-glucuronidase (Escherichia coli (strain K12)) (UniProt P05804); assay: Inhibition of Escherichia coli beta-glucuronidase at 1 mM relative to control
# Beta-glucuronidase [14] = target: T3, Beta-glucuronidase; assay: Inhibition of Escherichia coli beta-glucuronidase
# [15] = target: T5, Beta-glucuronidase (Mus musculus); assay: In vivo inhibition of beta-glucuronidase in OF1 mouse at 10 mg/kg, po after 8 days relative to control; assay type: functional, organism-based
# T3 sequence (P05804 whole entry): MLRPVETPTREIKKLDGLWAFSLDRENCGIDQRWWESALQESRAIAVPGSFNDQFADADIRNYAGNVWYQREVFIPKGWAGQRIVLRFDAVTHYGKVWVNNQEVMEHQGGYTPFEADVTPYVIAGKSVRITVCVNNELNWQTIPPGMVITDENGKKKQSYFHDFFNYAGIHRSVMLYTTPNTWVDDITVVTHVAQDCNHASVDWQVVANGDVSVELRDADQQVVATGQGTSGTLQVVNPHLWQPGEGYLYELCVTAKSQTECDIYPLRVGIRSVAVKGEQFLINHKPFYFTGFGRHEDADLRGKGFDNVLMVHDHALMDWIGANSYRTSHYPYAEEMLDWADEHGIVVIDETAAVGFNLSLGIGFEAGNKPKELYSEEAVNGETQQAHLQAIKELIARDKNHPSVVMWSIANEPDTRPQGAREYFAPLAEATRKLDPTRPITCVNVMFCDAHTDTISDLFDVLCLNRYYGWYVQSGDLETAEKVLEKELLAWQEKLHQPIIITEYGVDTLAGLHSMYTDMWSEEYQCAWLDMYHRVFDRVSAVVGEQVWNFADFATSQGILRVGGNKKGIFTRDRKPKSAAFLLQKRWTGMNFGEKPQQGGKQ
# Chain of Beta-glucuronidase (Escherichia coli (strain K12)) (P05804 whole entry, looked up): as the sequence (P05804 whole entry) above
compound,measurement,setting,value
CCOc1ccc(NC(=S)N(CCO)Cc2cc3cc(C)cc(C)c3[nH]c2=O)cc1,half-life,[1],< 1 h
same,IC50,Beta-glucuronidase [2],0.164 µM
O=C(O)c1ccccc1O,inhibition,[3],92.9%
same,inhibition,[4],82%
CC1(C)CCC2(C(=O)O)CC[C@]3(C)C(=CC[C@@H]4[C@@]5(C)[C@H](O)C[C@H](O)[C@@](C)(CO)[C@@H]5CC[C@]43C)[C@@H]2C1 (stereo partly specified),IC50,Beta-glucuronidase [5],63 µM
COc1ccc(C[C@@H]2CCC[C@@H]3[C@H](O)[C@@H](O)[C@H](CO)N23)cc1,Ratio IC50,[6],7
same,inhibition,[4],< 50%
CC(=O)c1ccc(Nc2cc(C)nc3ccccc23)cc1,IC50,Beta-glucuronidase [7],4 µM
O=c1cc(-c2ccc(O)c(O)c2)oc2cc(O)cc(O)c12 [LUTEOLIN],inhibition,[8],14.9%
same,inhibition,[9],21.3%
same,IC50,[10],8.68 µM
Oc1ccccc1-c1nc2cc(Cl)cc(Cl)c2[nH]1,IC50,[11],4.48 µM
same,IC50,[12],4.48 µM
CC(=O)N[C@H]1[C@@H](O)[C@H](O)[C@H](CO)N[C@@H]1Cc1ccccc1,inhibition,[13],37.2%
same,IC50,Beta-glucuronidase [14],90.7 µM
C[C@]12C=CC(=O)C=C1CC[C@H]1[C@@H]3C[C@@H](O)[C@](O)(C(=O)CO)[C@@]3(C)C[C@H](O)[C@@]12F,inhibition,[15],94.1%
